Columns and labels:
[1] = Filter type and excipient compatibility screen, retention of tracer on filter (FIG. 1); format: physicochemical; details: in PEG400 at levels of the excipient exceeding 10%; Sartorius Minisart 16596 HY 0.2 μm (FIG. 1)
Procedure: In examples of experiments, tests were performed on prospective formulations with different filter types to screen for compatibility of the filter material. Both cellulose and polyethersulfone membranes retained unacceptable quantities of the drug substance, with the lowest retention values obtained using polyvinylidene difluoride (PVDF) and polytetrafluoroethylene (PTFE) derived membranes.
In this case, a solution of [^18F]NAV4694 in PEG400 appears to have low retention at levels of the excipient exceeding 10%.
In the ensuing experiments, each of the excipients were formulated at multiple concentration levels (within acceptable ranges) then treated with small quantities of [^18F]NAV4694 and finally filtered through the preferred filter units. The percent retention of drug substance was then directly calculated through measurement of the actual quantity of radioactivity retained on the filter and compared to that remaining in the filtrate.

[2] = [^18F]NAV4694 solution for injection: stability (radiochemical purity over time); format: physicochemical
Procedure: [^18F]NAV4694 solution for injection was tested over a range of radioactivity concentration values to determine the capacity and potential expiry at given concentrations.

[3] = radioactivity concentration below about 75 mCi/mL
[4] = very high activity levels (>100 mCi/mL)

retention of the tracer on the filter [1]: low retention | initial radiochemical purity [2, 3]: high initial radiochemical purity | time over which high radiochemical purity is retained [2, 3]: retained over at least ten hours | decomposition [2, 4]: accelerated decomposition | initial radiochemical purity [2, 4]: lower initial radiochemical purity
SMILES: CNc1ccc(-c2cc3cc(O)ccc3o2)c([18F])n1 [[^18F]NAV4694, 2-[2-(^18F)fluoro-6-(methylamino)-3-pyridinyl)-5-benzofuranol]

— patent publication US20180344881A1, “FORMULATIONS FOR 2-HETEROARYL SUBSTITUTED BENZOFURANS” (Navidea Biopharmaceuticals, Inc., priority 2015, published 2018)
